Data as given in patent US11730743B2, “Protection of cells from degeneration and treatment of geographic atrophy” (University of Kentucky Research Foundation, priority 2012, dated 2023).

How the values were obtained:
IL18 = IL18 mRNA by real-time RT-PCR in human RPE cells; assay type: cell-based
NLRP3 = NLRP3 mRNA by real-time RT-PCR in human RPE cells; assay type: cell-based
Text: mRNA abundance. Transcript abundance was quantified by real-time RT-PCR using an Applied Biosystems 7900 HT Fast Real-Time PCR system using the 2^−ΔΔct method.
Real-time PCR. Total RNA was extracted from tissues or cells using Trizol reagent (Invitrogen) according to manufacturer's recommendations, DNase treated and reverse transcribed (QuantiTect, Qiagen). The RT products (cDNA) were amplified by real-time quantitative PCR (Applied Biosystems 7900 HT Fast Real-Time PCR system) with Power SYBR green Master Mix. Oligonucleotide primers specific for human IL1B, human NLRP3, human 18S rRNA, mouse Myd88, mouse Nlrp3, mouse 1118, and mouse 18S rRNA were used. The QPCR cycling conditions were 50° C. for 2 min, 95° C. for 10 min followed by 40 cycles of a two-step amplification program (95° C. for 15 s and 58° C. for 1 min). At the end of the amplification, melting curve analysis was applied using the dissociation protocol from the Sequence Detection system to exclude contamination with unspecific PCR products. […] For negative controls, no RT products were used as templates in the QPCR and verified by the absence of gel-detected bands. Relative expressions of target genes were determined by the 2^−ΔΔct method.

wild-type mice = assay: Alu RNA- or pAlu-induced RPE degeneration after subretinal injection (fundus photographs, ZO-1 flat mounts); assay type: in vivo; details: subretinal pAlu, test agent intravitreous
Experimental: Subretinal injection and imaging. Subretinal injections (1 μL) in mice were performed using a Pico-Injector (PLI-100, Harvard Apparatus). In vivo transfection of plasmids was achieved using 10% Neuroporter (Genlantis). Fundus imaging was performed on a TRC-50 IX camera (Topcon) linked to a digital imaging system (Sony). Immunolabeling of RPE flat mounts was performed using antibodies against human zonula occludens-1 (Invitrogen).
Fundus photography. Retinal photographs of dilated mouse eyes were taken with a TRC-50 IX camera (Topcon) linked to a digital imaging system (Sony).
Immunolabeling. Human eyes fixed in 2-4% paraformaldehyde were prepared as eyecups, cryoprotected in 30% sucrose, embedded in optimal cutting temperature compound (Tissue-Tek OCT; Sakura Finetek), and cryosectioned into 10 μm sections. Depigmentation was achieved using 0.25% potassium permanganate and 0.1% oxalic acid. Immunohistochemical staining was performed with the rabbit antibody against NLRP3 (1:100, Sigma Aldrich) or rabbit antibody against Caspase-1 (prediluted, AbCam). Isotype IgG was substituted for the primary antibody to assess the specificity of the staining. Bound antibody was detected with biotin-conjugated secondary antibodies, followed by incubation with ABC reagent and visualized by Vector Blue (Vector Laboratories). Levamisole (Vector Laboratories) was used to block endogenous alkaline phosphatase activity. Slides were washed in PBS, counterstained with neutral red (Fisher Scientific), rinsed with deionized water, air dried, and then mounted in Vectamount (Vector Laboratories). Fluorescent labeling of human tissue was performed with the rabbit antibody against PYCARD (1:50, Clone N-15, Santa Cruz Biotechnology). Immunolabeling was visualized by fluorescently conjugated anti-rabbit secondary antibody (Invitrogen). Tissue autofluorescence was quenched by incubating the sections in 0.3% Sudan black (Fisher Scientific). Sections were mounted in Vectashield with DAPI (Vector Laboratories). Mouse RPE/choroid flat mounts were fixed with 4% paraformaldehyde or 100% methanol, stained with rabbit antibodies against human zonula occludens-1 (1:100, Invitrogen) and visualized with Alexa594 (Invitrogen). All images were obtained using the Leica SP-5 or Zeiss Axio Observer Z1 microscopes.
Subretinal injection. Subretinal injections (1 μL) in mice were performed using a Pico-Injector (PLI-100, Harvard Apparatus). In vivo transfection of plasmids coding for two different Alu sequences (pAlu) or empty control vector (pNull) (Bennett et al., 2008; Kaneko et al., 2011; Shaikh et al., 1997) was achieved using 10% Neuroporter (Genlantis). AAV1-BEST1-Cre (Alexander and Hauswirth, 2008) or AAV1-BEST1-GFP were injected at […] pfu/mL and in vitro transcribed Alu RNA was injected at 0.3 mg/mL.
Drug treatments. siRNAs formulated in siRNA buffer (20 mM KCL, 0.2 mM MgCl2 in HEPES buffer at pH 7.5; Dharmacon) or phosphate buffered saline (PBS; Sigma-Aldrich); the TLR4 antagonist Ultra Pure Rhodobacter sphaeroides LPS (LPS-RS, InvivoGen), a peptide inhibitor of MyD88 homodimerization IMG-2005 (IMGENEX), control inhibitor (IMGENEX), recombinant IL-18 (Medical & Biological Laboratories), neutralizing rat antibodies against mouse IL-1β (IMGENEX), neutralizing rat antibodies against mouse IL-18 (Medical & Biological Laboratories), isotype control IgGs (R&D Systems or eBioscience as appropriate), Caspase-1 inhibitor Z-WEHD-FMK (R&D Systems), Caspase-3 inhibitor Z-DEVD-FMK (R&D Systems), Caspase control inhibitor Z-FA-FMK (R&D Systems), (2R,4R)-APDC (Enzo Life Sciences), Glipizide (Sigma-Aldrich), Glyburide (Sigma-Aldrich), and P2X7 receptor antagonist A438079 (Tocris Bioscience) were dissolved in phosphate buffered saline (PBS; Sigma-Aldrich) or dimethyl sulfoxide (DMSO; Sigma-Aldrich), and injected into the vitreous humor in a total volume of 1 μL with a 33-gauge Exmire microsyringe (Ito Corporation). […]

N[C@@]1(C(=O)O)CN[C@@H](C(=O)O)C1 [APDC, (2R,4R)-APDC]
blocked: pAlu-induced IL18 mRNA upregulation (IL18) | pAlu-induced NLRP3 mRNA upregulation (NLRP3) | pAlu-induced RPE degeneration (wild-type mice)
